Assay results: the METLIN SMRT retention time set (Domingo-Almenara et al. 2019)

Experiment: gradient 5% acetonitrile 3 min, to 50% in 2 min, to 85% in 15 min, held 3 min, 100 µL/min
Conditions: column: Zorbax Extend-C18 2.1 x 50 mm; eluents: water / acetonitrile, 0.1% formic acid
Outline: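 Using water and acetonitrile that each contained 0.1% formic acid, mixtures of ~100 pure standards were separated at 100 μL/min on a Zorbax Extend-C18 column (2.1 × 50 mm, 1.8 μm). The HPLC fed a quadrupole time-of-flight mass spectrometer working in positive and negative ionization mode, with dead and dwell volumes of 40 μL and 900 μL. Data were acquired over 3 months. Retention time was read from computationally picked adduct peaks after manual inspection of each.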

SMILES	RP-LC retention time [s]
O=C1CCC(c2nc(-c3ccc4c(c3)OCO4)no2)=NN1Cc1ccccc1	1050
CN(C)C[C@@H]1CN(C2CCOCC2)C[C@H]1NS(=O)(=O)Cc1cccc(F)c1	553
CCCc1nc(-c2cc3ccccc3nc2N2CCN(C)CC2)no1	671
N#C/C(=C\c1ccc(-c2cc(Cl)ccc2Cl)o1)C(=O)Nc1cccc2ncccc12	1110
Cc1cccc(C2(O)C(=O)N(Cc3nc(-c4ccccc4)oc3C)c3ccccc32)c1 (centres undefined)	1120
CCN(CC)CCCNC(=O)c1noc2c1CCCC2	607
Cc1ccc(-c2noc(-c3cccn(CC(=O)NC(C)C)c3=O)n2)cc1	764
Cn1c(=O)oc2cc(-c3noc(-c4ccc(C(C)(C)C)cc4)n3)ccc21	1310
COc1ccccc1-c1nc(Cc2noc(-c3ccc(F)cc3)n2)c(C)o1	1040
C=CCn1c(=O)c2ccccc2n(Cc2nc(-c3cc(OC)c(OC)c(OC)c3)no2)c1=O	948
Clc1ccc(-c2nc(NCc3cccnc3)c3ccccc3n2)cc1	601
CCOC(=O)NCc1nc2ccccc2n1Cc1c(F)cccc1Cl	613
Clc1nccc2c1ccc1ccccc12	1140
CC(C)c1nc(-c2ccc(OC3CCNC3)cc2)no1 (centres undefined)	631
CCCCS(=O)(=O)NCCc1noc(-c2ccccc2)n1	615
O=C(CC1CCCC1)N1CC(c2nc(-c3ccccc3)no2)C2(CCOCC2)C1 (centres undefined)	923
COc1ccc(OC)c(NC(=O)CN2C(=O)CC(c3ccc(Cl)cc3)=Nc3cccnc32)c1	1040
COc1cc(NC(=O)C2CC(=O)N(CCc3c[nH]c4ccc(F)cc34)C2)cc(OC)c1OC (centres undefined)	744
CCn1cc(CCN2CCN(C(=O)Cc3cccs3)CC2)c2cccnc21	590
Cc1cccc(Cl)c1S(=O)(=O)Nc1ccc2c(c1)CCC(=O)N2C	788
O=C(Nc1ccccc1-c1nc2ccccc2[nH]1)c1cc2ccccc2o1	1080

SMILES	RP-LC retention time [s]
Cc1ccc(Nc2cc(C)n3c(=O)n(Cc4cc(=O)n5ccccc5n4)nc3n2)cc1F	942
Cn1nc(-c2nc(Cc3ccccc3)no2)c2c1CCN(C(=O)NC(C)(C)C)C2	889
CS(=O)(=O)N1CCCC(C(=O)Nc2ccc(Cl)cc2C(=O)c2ccccc2)C1 (centres undefined)	869
COc1ccc(-n2ccc(=O)c(-c3nc(-c4ccccc4F)no3)n2)cc1OC	770
O=C(O)c1ccc2c(ccn2Cc2ccccc2)c1	843
COC(=O)C1=CN(c2cc(OC)cc(OC)c2)c2ccc(F)cc2S1(=O)=O	908
Cc1cc(N2CCOCC2)n2nc(CN3CCN(c4ccccc4)CC3)nc2n1	588
CCn1cc(CCNC(=O)NCC(C)C)c2cccnc21	636
COc1ccc(-c2noc(C3CCCN3C(=O)c3cc(Cl)ccc3OC)n2)cc1 (centres undefined)	1020
CCN(CC)C(=O)c1ccc(-c2nc3cc(NS(=O)(=O)c4ccc(F)c(C)c4)ccc3n2C)cc1	722
O=C(Nc1ccc2c(c1)OCO2)c1cn(-c2cc(N3CCCCC3)ncn2)cn1	936
Cc1ccc(C2(O)C(=O)N(Cc3nc(-c4ccccc4)oc3C)c3ccccc32)cc1 (centres undefined)	1110
Cc1ccc(N(C)C(=O)c2cc(C)n3nc(-c4ccccn4)cc3n2)cc1	763
Cc1ccn(CC(=O)N2CC(n3cc(COc4ccc(F)cc4)nn3)C2)n1	716
COc1cc(OC)cc(N2N=NC3C(=O)N(c4ccc(F)cc4)C(=O)C32)c1 (centres undefined)	907
O=C(c1nc(-c2ccnc(N3CCCCC3)c2)no1)N1CCCCC1	764
CC(C)NC(=O)N1CCc2c(c(-c3nc(-c4ccccc4)no3)nn2C)C1	820
COc1ccc(C(=O)Nc2nsc(-c3ccccc3)n2)cc1	778
CSc1ncn(-c2nc(N(C)C)nc(N3CCCCC3)n2)n1	1090
COc1cccc(-c2cn3ccn(-c4ccccc4)c(=O)c3n2)c1	773
CN1CCN(CCc2ccc(Cl)c(Cl)c2)CC1	668

Next, values leading:

RP-LC retention time [s]	SMILES
922	O=C(Cc1ccsc1)N1CCCC1c1nc(-c2ccc(F)cc2F)no1 (centres undefined)
725	CCOC(=O)C(C)Oc1cccc2c(=O)n(CC(=O)NCc3ccco3)ccc12 (centres undefined)
696	Cc1ccc(-c2cc(N3CCN(C(=O)c4ccccc4Br)CC3)ncn2)cc1
676	COc1ccc(C(=O)N2CCC3(CC2)NC(=O)c2ccccc2N3C)cc1OC
625	COc1ccccc1NC(=O)N1C[C@@H](F)C[C@H]1C(=O)N1CCOCC1
812	CCOc1ccc(CNC(=O)C2CCCN(c3cc(=O)n(C)c(=O)n3CC)C2)cc1 (centres undefined)
823	Cc1cc(OCC(=O)Nc2ccc(F)cc2)nc(N2CCN(c3ccccc3)CC2)n1
647	CCNC(=O)C1CCCN(c2nc3ncn(CC(=O)Nc4ccccc4F)c(=O)c3s2)C1 (centres undefined)
571	COCCNC(=O)N1CCC(C(=O)NCC(F)(F)F)CC1
901	CCc1ccc(C2=C(C)C(N3CCCN(C(=O)C(C)(C)C)CC3)=NS2(=O)=O)cc1
645	Cn1cccc(C(=O)Nc2nc3c(s2)CN(S(=O)(=O)C2CC2)CC3)c1=O
625	Cc1ccsc1CCNC(=O)C1CCN(C(=O)c2cc(-c3cccnc3)n[nH]2)CC1
838	Cc1ccc(-c2nnc(N3CCC(C(=O)NCc4ccc5c(c4)OCO5)CC3)o2)cc1
785	CCc1nc2cc(N3CCC(C(=O)NC4CCCC4)CC3)cnc2nc1CC
678	COC(=O)c1ccc(C(=O)OC)c(NC(=O)N2CCC(CN3CCCCCC3)CC2)c1
824	CCN1c2cc(F)ccc2C(=O)NC12CCN(C(=O)c1cccc(C)c1)CC2
828	O=C(Nc1ccc2c(c1)OCCO2)C1CCN(C(=O)c2ccc(-c3noc(C4CC4)n3)cc2)CC1
604	Cc1cc(C)nc(Nc2nc(CC(=O)NCCc3ccc(S(N)(=O)=O)cc3)cs2)n1
930	CCCOc1cn(-c2ccc(F)cc2)nc1C(=O)N1CCC(C(=O)OCC)CC1
1020	Cc1cccc(NC(=O)CSc2cc(N3CCCC(C)C3)ncn2)c1 (centres undefined)
762	Cc1csc(-c2ccc(N3CCN(C(=O)c4ccsc4)CC3)nc2)n1
1140	Cc1ccccc1OCC1c2ccsc2CCN1C(=O)CN(CC1CCCO1)C(=O)NC(C)(C)C (centres undefined)
818	Cc1ccc(S(=O)(=O)N2CCC(c3nc(C(=O)N(C)C)c(C)o3)CC2)cc1
588	CCOC(=O)c1nc(NCCCN2CCN(Cc3ccccc3)CC2)c2ccccc2n1

RP-LC retention time [s]	SMILES
633	O=C(c1cn(-c2ccc(S(=O)(=O)N3CCCCC3)cc2)cn1)N1CCN(c2ccccn2)CC1
1060	CC(C)c1ccc(NC(=O)Cn2cccc2-c2nnc(C3CCC3)o2)cc1
599	O=C1CCc2cc(NC(=O)C3CC3)ccc2N1
571	O=C([C@@H]1C[C@H](Oc2cccnc2)CN1C(=O)C1CC=CC1)N1CCCC1
568	CCN(CC)c1nc(C(=O)N2CCC(N3CCCCC3)CC2)nc2nc(C)cc(C)c12
740	CCOc1ccc(NC(=O)Nc2cccc(-c3ccc(N4CCCCC4)nn3)c2)cc1
895	CC(C)NC(=O)N1CCC2(CC1)Nc1cc(F)ccc1-n1cccc12
600	CC(=O)Nc1ccc(S(=O)(=O)NCCc2csc(C)n2)cc1
1130	Cc1nc2cc(-c3noc(-c4ccncc4)n3)ccc2n(C2CCCC2)c1=O
620	Cc1ncoc1C(=O)N1CCC(c2noc(-c3cnccn3)n2)C1 (centres undefined)
662	NC(=O)COC1CCC12CCN(C(=O)c1ccc3c(c1)OCO3)CC2 (centres undefined)
640	CCCc1cc(N2CCN(C(=O)COc3ccccc3)CC2)nc2nncn12
797	Cc1ccc(-n2nc3c(=O)n(CCCC(=O)NC4CCCC4)nc(C)c3c2C)cc1
1080	CCCC(=O)N1CCc2c([nH]c3ccccc23)C1c1ccccc1 (centres undefined)
625	COc1cccc(S(=O)(=O)N2CCC(N3C[C@H](OC)[C@@H]3c3ccncc3)CC2)c1
739	Cc1cc2nn(CC(=O)Nc3ccc(F)cc3)c(=O)n2c(N2CCCC2)n1
608	CCOC(=O)CNC(=O)Cn1c(-c2cccnc2)nc2ccccc21
711	CC1CCN(C(=O)c2nc3ccccn3c2-c2ccsc2)CC1
665	O=C(CN1C(=O)CCC1=O)NCC1(c2ccc(F)cc2)CC1
930	CC(C)c1cccc(NC(=O)Cn2nc3c(N4CCSCC4)nccn3c2=O)c1
717	CN(C)c1cccc(C(=O)N2CCC3(CC2)N=C(c2ccccc2)NO3)c1
672	O=C(NCc1ccccc1)Nc1cccc(-c2ccc(N3CCOCC3)nn2)c1
688	Cc1nc(-c2cnccn2)n(CC(=O)Nc2ccc3c(c2)OCCO3)c(=O)c1C
